Test system: Staphylococcus aureus ATCC 6538
Test: Compatibility with prototype vehicle, serial dilution test (MIC)
Assay type: cell-based
Settings: Id expressed as free base, IVa-IVc expressed as cation, 16-18 h, 37° C
Experimental: Compatability of the antimicrobial agents of Formula Id, Formula IIa, Formula IVa (A=Br), Formula IVb (A=Br) and Formula IVc (A=Br) with a prototype vehicle of the invention was tested by a serial dilution test against Staphylococcus aureus ATCC 6538. Volumes of two milliliters were used. Dilutions were in tryptose-phosphate broth. Incubation was for 16-18 hours at 37° C. Growth was verified with 2,3,5-triphenyltetrazoliumchloride. The inoculum was 1.8×10^5 viable cells per tube. There follows the formula of the prototype vehicle. […]

Compound | Minimum Inhibitory Concentration (MIC) (added vehicle 0 μg/ml) | Minimum Inhibitory Concentration (MIC) (added vehicle 15.6 μg/ml) | Minimum Inhibitory Concentration (MIC) (added vehicle 31.2 μg/ml) | Minimum Inhibitory Concentration (MIC) (added vehicle 62.5 μg/ml) | Minimum Inhibitory Concentration (MIC) (added vehicle 125.0 μg/ml) | Minimum Inhibitory Concentration (MIC) (added vehicle 250.0 μg/ml) | Minimum Inhibitory Concentration (MIC) (added vehicle 500.0 μg/ml) | Minimum Inhibitory Concentration (MIC) (added vehicle 1000.0 μg/ml) | Minimum Inhibitory Concentration (MIC) (added vehicle 2000.0 μg/ml) | Minimum Inhibitory Concentration (MIC) (added vehicle 4000.0 μg/ml) | Minimum Inhibitory Concentration (MIC) (added vehicle 8000.0 μg/ml)
CCCCCCCN=c1ccn(CCCCCCCCCCCCn2ccc(=NCCCCCCC)cc2)cc1 [Compound of Formula IVa] | 0.39 µg/mL | 0.195 µg/mL | 0.39 µg/mL | 0.39 µg/mL | 0.10 µg/mL | 0.10 µg/mL | 0.10 µg/mL | 0.195 µg/mL | 0.10 µg/mL | 0.195 µg/mL | 0.10 µg/mL
CCCCC(CC)CN=c1ccn(CCCCCCCCCCCCn2ccc(=NCC(CC)CCCC)cc2)cc1 (stereo not shown) [Compound of Formula IVc] | 0.25 µg/mL | 0.25 µg/mL | 0.25 µg/mL | 0.25 µg/mL | 0.125 µg/mL | 0.0625 µg/mL | 0.125 µg/mL | 0.125 µg/mL | 0.125 µg/mL | 0.25 µg/mL | 0.25 µg/mL
CCCCCCCNC(=N)NC(=N)NCCCCCCNC(=N)NC(=N)NCCCCCCC [Compound of Formula Id] | 0.25 µg/mL | 0.25 µg/mL | 0.25 µg/mL | 0.25 µg/mL | 0.25 µg/mL | 0.25 µg/mL | 0.25 µg/mL | 0.25 µg/mL | 0.50 µg/mL | 0.50 µg/mL | 0.50 µg/mL
CCCCCCCCN=c1ccn(CCCCCCCCCCn2ccc(=NCCCCCCCC)cc2)cc1 [Compound of Formula IVb] | 0.5 µg/mL | 0.5 µg/mL | 0.5 µg/mL | 0.5 µg/mL | 0.5 µg/mL | 0.25 µg/mL | 0.125 µg/mL | 0.125 µg/mL | 0.125 µg/mL | 0.25 µg/mL | 0.25 µg/mL
CCCCCCCCCCCCCC[N+](C)(C)Cc1ccccc1 [Compound of Formula IIa, benzalkonium chloride, reference compound] | 0.5 µg/mL | 0.5 µg/mL | 0.5 µg/mL | 0.5 µg/mL | 0.5 µg/mL | 0.5 µg/mL | 0.5 µg/mL | 1.0 µg/mL | 1.0 µg/mL | 1.95 µg/mL | 1.95 µg/mL

Reference: patent US4420484A, “Basic amino or ammonium antimicrobial agent-polyethylene glycol ester surfactant-betaine and/or amine oxide surfactant compositions and method of use therof” (Sterling Drug Inc., priority 1981, dated 1983)
